Measurements: patent US20250270507A1, “METHODS FOR PRODUCING CARTILAGE AND BONES” (Murdoch Children's Research Institute, priority 2021, published 2025)

Experiments:
Format in all cases: cell-based, human
[1] = system: MCRIi018-B hypertrophic organoids; test: Hypertrophic chondrocyte to osteoblast transdifferentiation in vitro
Procedure: Hypertrophic chondrocytes can transdifferentiate into osteoblasts and osteocytes in vivo (Yang et al., 2014; Zhou et al., 2014). To recapitulate this later stage of endochondral bone formation in vitro, hypertrophic chondrocyte pellets in orbital culture were rinsed in PBS then cultured in DMEM, high glucose, GlutaMAX Supplement, pyruvate (ThermoFisher), 20% FBS (ThermoFisher), 10 mM β-glycerophosphate, 50 μg/ml ascorbic acid 2-phosphate, 50 μg/ml sodium ascorbate, 100 nM dexamethasone (osteogenic differentiation media) for up to three weeks. […] Media was replaced every 2-3 days. […]

[2] = system: MCRIi001-A-2 organoids; test: Osteogenic differentiation conditions in a second iPSC line; settings: osteogenic conditions with a CHIR99021 pulse v osteogenic medium alone
Procedure: Hypertrophic chondrocytes can transdifferentiate into osteoblasts and osteocytes in vivo (Yang et al., 2014; Zhou et al., 2014). To recapitulate this later stage of endochondral bone formation in vitro, hypertrophic chondrocyte pellets in orbital culture were rinsed in PBS then cultured in DMEM, high glucose, GlutaMAX Supplement, pyruvate (ThermoFisher), 20% FBS (ThermoFisher), 10 mM β-glycerophosphate, 50 μg/ml ascorbic acid 2-phosphate, 50 μg/ml sodium ascorbate, 100 nM dexamethasone (osteogenic differentiation media) for up to three weeks. […] Media was replaced every 2-3 days.
Cultured and in vivo grafted pellet organoids were fixed overnight at 4° C. in Confix (Australian Biostain) neutral-buffered formalin, then […] washed in 70% ethanol, and paraffin-embedded. After fixing, some in vivo grafted pellets were washed in water for 10 minutes then decalcified in 14% EDTA, pH 7.4 at 4° C. for 5 days before embedding. Serial 5 μm sections cut from the pellet centers were mounted on Superfrost Plus slides (Menzel-Gläser) and heated at 55° C. overnight. Sections were treated with xylene to remove the paraffin wax and an ethanol series comprising 100%, 90%, 70%, 50% ethanol then water to rehydrate the sections. Sections were stained with toluidine blue to detect a cartilage proteoglycan matrix or safranin O/fast green for cartilage and bone following standard protocols. […]

[3] = system: iPSC-derived sclerotome pellets (MCRIi018-B); test: Sclerotome to chondrocyte differentiation in pellet culture (FGF2 v BMP4); settings: for collagen II extracellular matrix (immunostaining) / collagen X extracellular staining: day 48; for collagen X extracellular staining: static pellets
Procedure: Sclerotome to chondrocyte differentiation was in APEL2 medium containing 5% Protein Free Hybridoma Medium (PFHM II; Thermo Fisher) and 20 ng/ml FGF2. In some experiments BMP4 (R & D Systems) was included at 20 ng/ml. Pellets were routinely transferred to 6 cm non-adherent dishes (Greiner) at the end of either day 6 or day 20; 15-20 pellets per dish in 5 ml of medium with orbital rotation at 60 rpm. The medium was changed every 2-3 days. From day 20 (after 2 weeks of FGF2 treatment), differentiation/maturation continued in APEL2/5% PFHM with medium replaced every 2-3 days for the duration of the chondrogenic differentiation experiments as indicated. In some experiments pellets were treated with FGF2 for 4 weeks post-sclerotome.
(§1) Cultured and in vivo grafted pellet organoids were fixed overnight at 4° C. in Confix (Australian Biostain) neutral-buffered formalin, then […] washed in 70% ethanol, and paraffin-embedded. After fixing, some in vivo grafted pellets were washed in water for 10 minutes then decalcified in 14% EDTA, pH 7.4 at 4° C. for 5 days before embedding. Serial 5 μm sections cut from the pellet centers were mounted on Superfrost Plus slides (Menzel-Gläser) and heated at 55° C. overnight. Sections were treated with xylene to remove the paraffin wax and an ethanol series comprising 100%, 90%, 70%, 50% ethanol then water to rehydrate the sections. Sections were stained with toluidine blue to detect a cartilage proteoglycan matrix or safranin O/fast green for cartilage and bone following standard protocols. Osteogenic pellet sections were also stained with von Kossa to detect mineralization. Images were captured using a Leica DM 2000 LED microscope with Leica Application Suite (LAS) software version 4.9.0 or Zeiss Axio Imager Z2 with Zen 3.1 Blue Edition software.
(§2) Formalin fixed and paraffin-embedded sections were immunostained for collagen II (MAB8887; Sigma-Aldrich; 1:150 dilution), collagen I (LF68; Kerafast ENH018-FP; 1:100), collagen X (Cameron et al., 2015) (1:100), PRG4 (clone 9G3; Merck) (1:100) and Ku80 (Cell Signaling) (1:300). For collagen II staining, antigen retrieval used 2 mg/ml porcine pepsin (Sigma) freshly prepared in 1 M Tris/HCl, pH 2.0 for 30 minutes at 37° C., followed by digestion for 30 minutes at 37° C. with 0.2% hyaluronidase (Sigma-Aldrich) in PBS. Collagen X antigen retrieval involved heating to 60° C. in 10 mM Tris/1 mM EDTA/0.05% Tween-20, pH 9.0 (Tris/EDTA) for 30 min, cooling to room temperature for 30 minutes, followed by hyaluronidase digestion and collagen I and Ku80 staining followed antigen retrieval at 60° C. in Tris/EDTA as above. Sections to be stained with Ku80 were then permeabilized with 0.05% Triton X-100. Sections were blocked with 3% BSA in PBS for 1 hour at room temperature, then incubated with primary antibodies in 1% BSA in PBS for 16 hours at 4° C. Appropriate species specific Alexa Fluor 488 and 594 secondary antibodies (ThermoFisher) were diluted 1:200 in 1% BSA in PBS with 2.5 μg/ml DAPI, and sections incubated for 1 hour at room temperature. Slides were washed with PBS and coverslips mounted using Shandon Immumount (ThermoFisher). Images were captured as described above. For collagen X intracellular colocalization studies sections were treated with 0.2% hyaluronidase at 37° C. for 30 minutes then permeabilized with 0.05% Triton X-100. The collagen X antibody was used at 1:100, 58K (PA1-9000; ThermoFisher) at 1:50, GRP94 (PA5-18534; ThermoFisher) 1:200 and LAMP2 (ab25631; Abcam) 1:50. Images were captured on a Zeiss LSM900 Airyscan 2 confocal microscope with Zen 3.1 Blue Edition software.
RNA was extracted from monolayer cultures using TRIzol […] following the manufacturer's instructions. Typically 100-200 ng total RNA was used for cDNA synthesis in a total volume of 20 μl using the QuantiTect® Reverse Transcription kit (Qiagen) according to the manufacturer's instructions. […]

[4] = system: iPSC-derived chondroprogenitors (MCRIi019-A); test: TGFβ3 induction of an articular chondrocyte phenotype; settings: day 48
Procedure: In some experiments, differentiated chondrocytes were treated with 10 ng/ml TGFβ3 (R&D Systems) for up to 34 days to generate articular cartilage. From day 6, differentiation/maturation continued in APEL2/5% PFHM (with FGF2) for 7 days. From day 13, 10 ng/ml TGFβ3 was added (i.e. FGF2 and TGFβ3) with medium replaced every 2-3 days. At day 20, the pellets were transferred to rotary culture and cultured with 10 ng/ml TGFβ3 (R&D Systems) (and without FGF2) for a further 4 weeks.
as §1, §2
For RNAseq, organoids (2-3 pooled) were snap frozen in liquid nitrogen, pulverized using a liquid nitrogen-cooled tissue grinder and RNA extracted with TRIzol, followed by purification using Direct-zol RNA Microprep kit spin columns (Zymo Research) according to the manufacturer's instructions. RNA samples were quality controlled and sequenced at the Translational Genomics Unit, Murdoch Children's Research Institute. Libraries were constructed using Illumina Stranded mRNA Prep kits and sequenced using a NextSeq 500 to obtain ˜20×10^6 75 bp paired-end reads per sample or a NovaSeq 6000 for 150 bp paired-end reads. […]

[5] = osteogenic conditions with CHIR, RNAseq
[6] = osteogenic conditions with a CHIR pulse, RNAseq
[7] = 20 ng/ml for 14 days post-sclerotome, qRT-PCR
[8] = 20 ng/ml for 14 days post-sclerotome, static culture, day 34

Molecule: Cc1cnc(-c2cnc(NCCNc3ccc(C#N)cn3)nc2-c2ccc(Cl)cc2Cl)[nH]1 [CHIR99021, 6-[[2-[[4-(2,4-Dichlorophenyl)-5-(5-methyl-1H-imidazol-2-yl)-2-pyrimidinyl]amino]ethyl]amino]-3-pyridinecarbonitrile]
- COL1A1 mRNA expression v osteogenic medium alone ([1]; RNAseq): much higher
- bone markers COL3A1, COL5A1 and OMD mRNA v osteogenic medium alone ([1]; RNAseq): more highly expressed
- other cartilage markers (SOX9, COMP, IHH, MATN3, CEBPB, COL11A1, COL11A2, COL9A1, COL9A2, COL9A3) mRNA v osteogenic medium alone ([1]; RNAseq): downregulated more
- COL1A1 upregulation v hypertrophic chondrocytes [1, 5]: 324 fold
- COL1A2 upregulation v hypertrophic chondrocytes [1, 5]: 210 fold
- DMP1 upregulation v hypertrophic chondrocytes [1, 5]: 935 fold
- IBSP upregulation v hypertrophic chondrocytes [1, 5]: 7 fold
- IFITM5 upregulation v hypertrophic chondrocytes [1, 5]: 105 fold
- CCDC3 upregulation v hypertrophic chondrocytes [1, 6]: 121 fold
- FAP upregulation v hypertrophic chondrocytes [1, 6]: 64 fold
- POSTN upregulation v hypertrophic chondrocytes [1, 6]: 54 fold
- SFRP4 upregulation v hypertrophic chondrocytes [1, 6]: 4 fold
- TNC upregulation v hypertrophic chondrocytes [1, 6]: 72 fold
- toluidine blue staining ([1]; osteogenic medium with 7-day pulse then 2 weeks osteogenic medium alone): marked reduction in toluidine blue staining
- μCT calcium phosphate mineral ([1]; three weeks): little μCT attenuation
- von Kossa staining (matrix mineralization) ([1]; three weeks, compared between the two osteogenic conditions): positive von Kossa staining
- aggrecan degradation (toluidine blue) [2]: more extensive

Molecule: FGF2: FGF pathway activator growth factor (PeproTech) used at 20 ng/ml post-sclerotome
- COL2A1 and ACAN gene expression [3, 7]: consistently higher than in BMP4 cultures
- toluidine blue staining of pellets [3, 8]: strong toluidine blue staining throughout
- collagen II extracellular matrix (immunostaining) [3]: extensive and uniform collagen II extracellular matrix
- collagen X extracellular staining [3]: strong
- toluidine blue staining of pellets ([3]; rotary culture from day 6): stained throughout with toluidine blue

Molecule: TGFβ3: TGF-beta agonist growth factor (R&D Systems) used at 10 ng/ml
- PRG4 immunostaining ([4]; 10 ng/ml from day 13): High uniform PRG4 immunostaining
- chondrocyte morphology ([4]; 10 ng/ml from day 13): smaller chondrocytes
- collagen II expression (immunostaining) ([4]; 10 ng/ml from day 13): also expressing collagen II
- collagen X (immunostaining) ([4]; 10 ng/ml from day 13): no extracellular collagen X
- ACAN and HAPLN mRNA ([4]; RNAseq): down-regulation
- COL10A1, IBSP, SPP1 and MATN3 mRNA ([4]; RNAseq): among the most downregulated
- COMP mRNA v untreated chondronoids ([4]; RNAseq): not differentially expressed
- ERG transcription factor mRNA ([4]; RNAseq): highly expressed and upregulated
- MEOX1 and MEOX2 mRNA ([4]; RNAseq): highly upregulated
- PRG4, ASPN, CILP and CILP2 mRNA v untreated chondronoids ([4]; RNAseq): strongly upregulated
- downregulation of COL2A1, COL9A1, COL9A2, COL9A3, COL11A1 mRNA v untreated chondronoids ([4]; RNAseq): ≤ 2 fold
- elastic fiber components ELN, LTBP2, TGFBI and MFAP5 mRNA ([4]; RNAseq): among the 20 most highly upregulated genes
- hypertrophy transcription factors MEF2C, RUNX2, SP7 and DLX5 mRNA ([4]; RNAseq): Among the most strongly downregulated

B1: BMP4: growth factor (R & D Systems) included at 20 ng/ml in some experiments (protein, UniProt P12644 293-408, looked up)
Bone morphogenetic protein 4: SPKHHSQRARKKNKNCRRHSLYVDFSDVGWNDWIVAPPGYQAFYCHGDCPFPLADHLNSTNHAIVQTLVNSVNSSIPKACCVPTELSAISMLYLDEYDKVVLKNYQEMVVEGCGCR
- COL10A1 gene expression [3, 7]: expressed earlier
- toluidine blue staining of pellets [3, 8]: only isolated areas were toluidine blue positive
- expression of key cartilage genes ([3]; 20 ng/ml for two weeks post-sclerotome, first experiments, data not shown): key cartilage genes were not highly expressed
- collagen II extracellular matrix (immunostaining) [3]: only small foci that were positive for collagen II
- collagen X extracellular staining [3]: only seen in small, localized regions
- maintenance of pellets in rotary culture ([3]; transfer to rotary culture at end of day 6): fragile and could not be maintained in rotary culture
